Patent publication US10145848B2, “Small-molecule hydrophobic tagging of fusion proteins and induced degradation of same” (YALE UNIVERSITY, priority 2010, dated 2018)

Assays:
[1] = test system: transmembrane HA-HaloTag fusion proteins (Ror2, CD3E, CD9, GPR40, Frizzled-4); experiment: Immunoblotting of transmembrane HA-HaloTag fusion proteins in HEK 293T cells; format: cell-based; settings: 1 μM, 24 hours
[2] = target: T1, HA-HaloTag(D106A)-H-RasG12V (UniProt P01112+P0A3G2, C176G/D106A/G12V/H272F/K175M/Y273L); experiment: Immunoblotting of HA-HaloTag(D106A)-H-RasG12V in NIH-3T3 cells; format: cell-based; settings: 1 μM, 24 hours
T1 construct: The HaloTag protein was obtained from pHT2 vector (Promega); H-Ras carrying G12V (fusion partner, same polypeptide); expressed in transfected cells; host or cells: NIH-3T3, retroviral infection (pEYK3.1)
Procedure: (a) NIH-3T3 cells were retrovirally infected with a construct expressing either HA-HaloTag-HRas(G12V) or HA-HaloTag(D106A)-HRas(G12V). The cells were then treated with vehicle or 1 μM HyT13 for 24 hours. The lysates were prepared for immunoblotting and the blots were probed with anti-HA and anti-β-actin antibodies. (b) One hundred thousand NIH-3T3 cells infected with HA-HaloTag-HRas(G12V) or HA-HaloTag(D106A)-HRas(G12V) were plated in 10% FBS containing medium onto 10-cm plates. The next day, the medium was replaced with 1% FBS containing medium, along with vehicle or 1 μM HyT13. The media was refreshed every 2 days, and the plates were pictured on day 6. Bar, 5 mm. (c) Quantification of foci as described in (b). The number of foci/cm^2 was counted from three separate plates, with error bars representing SEM. […] Tumor size was measured daily, and the tumor volume was calculated. […]
The indicated cells were washed twice with cold PBS and the cells were lysed in lysis buffer (1×PBS, 1% NP-40, 1 mM EDTA, 40 mM HEPES) with protease inhibitors. […] The total protein concentration was determined by Bradford assay and 50 μg of protein was loaded onto an 8% Bis-Tris gel. […] The blots were processed by standard procedures with indicated antibodies, and the band intensities were quantified by ImageJ. […]

[3] = test system: NIH-3T3 cells infected with HA-HaloTag-H-RasG12V; experiment: Focus formation assay, HA-HaloTag-H-RasG12V cells; format: cell-based, mouse; settings: 1 μM, 1% FBS, day 6
Procedure: One hundred thousand NIH-3T3 cells infected with HA-HaloTag-H-RasG12V and HA-HaloTag(D106A)-H-RasG12V were plated onto 10-cm cell culture plates in 10% FBS with DMEM. The next day, the media was replaced with 1% FBS media and the cells were administered either vehicle or 1 μM HyT13. The media and the drug were replaced every two days. On day 6, the foci were photographed and counted as the number of distinct foci per 1-cm^2 area.
We next explored the functional utility of HaloTag-based degradation of an oncogene by HyT13 both in cell culture and in mice. The small GTPase H-Ras is one of the most commonly mutated genes in cancer, with up to […] of cancers harboring activating mutations in this gene^35. Activating mutations, such as the H-RasG12V allele, lead to decreased dependence on extracellular mitogenic signals. […] When H-RasG12V expressing cells are grown in culture under low serum conditions they lose cell-to-cell contact inhibition and form distinct foci instead of growing as a cellular monolayer. Furthermore, these transformed cells are capable of tumor formation when injected into immuno-compromised nude mice^36,37. We investigated whether (1) HaloTag-H-RasG12V driven focus formation can be suppressed in NIH-3T3 cells and (2) HaloTag-H-RasG12V driven tumor burden in mice can be reduced by administration of HyT13. […]

[4] = Serum HyT13 determination (bio-reporter assay); format: in vivo; settings: mouse, intraperitoneal, 25 mg/kg IP, Swiss Webster mice, read-out: blood serum concentration
Procedure: Webster Swiss mice received IP injections of 25 mg/kg of HyT13. The injection volume was 10 μL, consisting of 5 μL, of Cremophor EL excipient and 5 μL, of HyT13 in DMSO. Blood was collected from the carotid artery 1 and 24 hours after the injection. The blood was allowed to coagulate for 10 minutes, centrifuged at 10,000 g for 5 minutes and the serum was pipetted into a new tube. Ten microliters of the serum were used for a bio-reporter assay, consisting of the ability to degrade luciferase activity in HEK 293T luciferase-HaloTag cells. The serum concentration of HyT13 was based on a concentration curve of HyT13 performed alongside the bio-reporter assay. […] Each treatment group consisted of three mice. Shown is the mean serum HyT13 level±SEM.
To examine whether the HaloTag:HyT13 based system could be used in mouse models to relieve the H-RasG12V-driven tumor burden, we first evaluated the pharmacokinetics of HyT13. We performed a maximum tolerated dose experiment with HyT13 in nude mice at doses up to 100 mg/kg over a 14-day treatment regimen. […] Next, we sought to determine the serum bioavailability of HyT13 following injections. HyT13 was administered at 25 mg/kg by intraperitoneal (IP) injection into Swiss Webster mice and the serum was collected at 1 and 24 hours post-injection. […]

T1 sequence (P0A3G2+P01112 fused with the stated changes): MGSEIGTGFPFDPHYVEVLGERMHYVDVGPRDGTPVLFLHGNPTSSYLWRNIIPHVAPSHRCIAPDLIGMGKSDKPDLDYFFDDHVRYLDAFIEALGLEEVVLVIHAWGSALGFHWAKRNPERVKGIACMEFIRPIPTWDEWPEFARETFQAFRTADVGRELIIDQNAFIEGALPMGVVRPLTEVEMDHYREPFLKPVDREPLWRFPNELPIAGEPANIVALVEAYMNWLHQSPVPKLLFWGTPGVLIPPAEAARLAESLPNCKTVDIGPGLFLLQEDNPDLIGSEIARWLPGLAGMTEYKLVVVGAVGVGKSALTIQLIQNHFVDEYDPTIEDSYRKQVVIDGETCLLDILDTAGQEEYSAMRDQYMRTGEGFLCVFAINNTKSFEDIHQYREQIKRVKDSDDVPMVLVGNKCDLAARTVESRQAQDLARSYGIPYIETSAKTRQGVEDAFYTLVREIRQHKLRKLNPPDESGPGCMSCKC

**Q.** For `O=C(CC12CC3CC(CC(C3)C1)C2)NCCOCCOCCCCCCCl` [HyT13, 2-((3r,5r,7r)-Adamantan-1-yl)-N-(2-(2-((6-chlorohexyl)oxy)ethoxy)ethyl)acetamide], which “degradation of transmembrane HaloTag fusion proteins” value [1] is on record?
**A.** efficiently induced their degradation

**Q.** What about the “degradation of HA-HaloTag(D106A)-H-RasG12V” value [2] of the same compound?
**A.** unaffected

**Q.** And the focus formation [3]?
**A.** had grown a normal monolayer of cells

**Q.** And the concentration at 1 h ([4]; 1 hour post administration)?
**A.** ~2000 nM

**Q.** What about the concentration at 24 h ([4]; 24 hours) of the same compound?
**A.** ~500 nM
